Experimental data reported in US20160000796A1, “PHARMACEUTICAL COMPOSITION FOR USE IN PREVENTION OR TREATMENT OF CANCER” (priority 2013, published 2016).

Experiments:
[1] = test system: HTLV-1-producing cell line, MT2; assay: Cellular proliferation test (MTS assay), MT2; assay type: cell-based
Method: (§1) HTLV-1-producing cell lines, MT2 (transformant with HTLV-1, JCRB cell No: JCRB1210) and HUT102 (ATL-derived cell line, ATCC No: TIB-162), were used.
(§2) Each nucleoside analogue reverse transcriptase inhibitor was added to the medium for cells at a final concentration of 100 μM. Cells were seeded on a 96-well plate at a concentration of 1×10^4 cells/100 μL/well and cultured for 4 hours (Day 0), 48 hours (Day 2) or 96 hours (Day 4). A medium added DMSO (solvent control) alone was used as a control. Cellular proliferation was examined by MTS assay. Specifically, after the cells were cultured for a predetermined time, a reagent for cellular proliferation test, Aqueous One Solution Cell Proliferation (trade name, manufactured by Promega), was added to the cells. Four hours later, absorbance at 490 nm was measured. The cellular proliferation was represented by a ratio relative to that of the control (solvent control) on Day 0 that was regarded as 1.
Abacavir was added to MT2 and HUT102 used in Example 1 at a concentration of 0 μM (DMSO was added instead of abacavir), 10 μM, 25 μM, 50 μM, 75 μM or 100 μM. The cells were seeded on a 96-well plate at a concentration of 1×10^4 cells/100 μL/well and cultured for 4 hours or 48 hours. […]

[2] = test system: HTLV-1; assay: Measurement of amount of virus (HTLV-1 P19 ELISA), HUT102; assay type: cell-based, human T-cell leukemia virus type 1; details: 100 μM, Day 0, 2, 4, 7, compared among six NRTIs
Method: as §1
Each nucleoside analogue reverse transcriptase inhibitor was added to the medium for cells at a final concentration of 100 μM. Cells were seeded on a 96-well plate at a concentration of 1×10^4 cells/100 μL/well and cultured for 0 hour (Day 0), 48 hours (2 days), 96 hours (4 days) or 168 hours (7 days). At each time point, the medium was collected. The amount of virus contained in the medium collected at each time point (pg/mL) was measured by HTLV-1 P19 ELISA kit (manufactured by Zeptometrix).

[3] = test system: ATL43T (non-virus-producing ATL cell line); assay: Cellular proliferation (MTS assay), ATL43T; assay type: cell-based
Method: as §2
This example used HTLV-1-infected cell lines (non-virus-producing ATL cell lines): ED40515 (−), ED40515 (+), and ATL43T (all were provided by Prof. Michiyuki Maeda who produced the cells); and SYK-11L (+) (prepared in the laboratory of the inventors).
The six types of nucleoside analogue reverse transcriptase inhibitors as used in Example 1 were used and cellular proliferation was examined in the same manner as in Example 1. […]

[4] = test system: ATL cell line, ED40515 (−); assay: Chromosome double-strand break (Giemsa chromosome specimens), ED40515 (−); assay type: cell-based; details: 48 hours, abacavir 10-100 μM, zidovudine 10 or 100 μM
Method: Abacavir was added to an ATL cell line, ED40515 (−), at a concentration of 0 μM (DMSO was added instead of abacavir), 10 μM, 25 μM, 50 μM, 75 μM or 100 μM. After the 48 hours culture, the cells were fixed by Carnoy and stained with Giemsa to prepare chromosome specimens in accordance with conventional methods. Similarly, zidovudine was added to ED40515 (−) at a concentration of 10 μM or 100 μM, and abacavir was added to a non-ATL cell line, Jurkat, at a concentration of 100 μM, and chromosome specimens were prepared. Chromosome images (100 or more images per group) were observed by an optical microscope. The cells were determined as being positive for double-strand break (DSB) when at least one chromosome break was found.

[5] = test system: non-ATL cell line, Jurkat; assay: PARP inhibitor combination, cellular proliferation (MTS), Jurkat; assay type: cell-based, human; details: abacavir 10, 50 or 100 μM, 48 hours
Method: To an ATL cell line, ED40515 (−), or a non-ATL cell line, Jurkat, abacavir was added at a concentration of 0 μM (DMSO, was added instead of abacavir), 10 μM, 50 μM or 100 μM, and further a PARP inhibitor, olaparib, was added at a concentration of 0 μM (DMSO was added instead of olaparib), 1 μM, 10 μM, 100 μM or 1000 μM. The cells were cultured for 48 hours. MTS assay was performed using a reagent for cellular proliferation test, Aqueous One Solution Cell Proliferation (trade name, manufactured by Promega), in the same manner as in Example 1. The cellular proliferation was represented by a ratio relative to that of the control (solvent control) on Day 0 that was regarded as 1.

[6] = test system: NCI_H522 (lung cancer cell line lacking TDP1 expression); assay: Cellular proliferation (MTS) of lung cancer cell line NCI_H522; assay type: cell-based; details: 100, 200 or 300 μM, 72 hours
Method: Lung cancer cell lines lacking TDP1 expression, HOP—62 and NCI_H522, were used. NCI_H1299, a lung cancer cell line expressing TDP1, was used as a control. HOP—62 and NCI_H522 were provided by Dr. Pommier (DNA Repair. 2014 January; 13: 1-9).
Abacavir was added to each of the cell lines at a concentration of 0 μM (DMSO was added instead of abacavir), 100 μM, 200 μM or 300 μM. The cells were seeded on a 96-well plate at a concentration of 3×10^3 cells/100 μL/well and cultured for 4 hours or 72 hours. After the culture of a predetermined time, MTS assay was performed using a reagent for cellular proliferation, test, Aqueous One Solution Cell Proliferation (trade name, manufactured by Promega), in the same manner as in Example 1. The cellular proliferation was represented by a ratio relative to that of the control (solvent control) on Day 0 that was regarded as 100%.

[7] = test system: HTLV-1; details: Non Patent Literature 5; cited from earlier work

Nc1nc(NC2CC2)c2ncn([C@H]3C=C[C@@H](CO)C3)c2n1 [abacavir, (−)-(1S,4R)-4-[2-amino-6-(cyclopropylamino)-9H-purin-9-yl]-2-cyclopentene-1-methanol]
cellular proliferation (ratio relative to solvent control on Day 0) ([1]; 100 μM, Day 0, 2, 4, compared among six NRTIs): most strongly suppressed
cellular proliferation, dose dependence ([1]; 10, 25, 50, 75, 100 μM, 48 hours): suppressed cellular proliferation of both cell lines in a dose-dependent manner
viral production (amount of virus in the medium) [2]: most strongly suppressed
cellular proliferation ([3]; 100 μM): strong suppressive effect
cellular proliferation, dose dependence ([3]; 10-100 μM, Day 0, 2, 4): suppressed cellular proliferation of all the cell lines in a dose-dependent manner
ratio of double-strand break-positive cells [4]: increased the ratio of double-strand break-positive cells in a dose-dependent manner
cellular proliferation [5]: did not suppress cellular proliferation
cellular proliferation [6]: suppressed cellular proliferation of HOP—62 and NCI_H522 lacking TDP1 expression in a concentration dependent manner
anti-HTLV-1 effect [7]: anti-HTLV-1 effect
